The record followed here is patent US20170035713A1, “SYNERGISTIC COMBINATIONS OF CAROTENOIDS AND POLYPHENOLS” (LYCORED LTD., priority 2009, published 2017).

What all share (assay type): cell-based, mouse
Experiment [1] concerns PGE2 production by peritoneal macrophages. As to the kind of experiment: PGE2 measurement (radio-immunoassay) in LPS-stimulated peritoneal macrophages. To be noted: for inhibition of PGE2 production (in words): FIG. 5a/5b lower panel, lutein 0.5 μM, beta-Carotene 1 μM, carnosic acid 1 μM; for inhibition of PGE2 production: used alone, FIG. 4 / FIG. 5a upper panel, same set of experiments as FIG. 2. As to the method:
(§1) Macrophage isolation and cell culture—Peritoneal macrophages were collected from the peritoneal cavity of 6-8 week old male ICR mice (Harlan, Israel) that had been given an intraperitoneal injection of 1.5 ml of thioglycollate broth (4%) 4 days before harvest. Peritoneal macrophages were washed three times with PBS and, if needed, a hypotonic lysis of erythrocytes was performed, yielding 90-95% purity. The macrophages were identified by FACS analysis using FITC-conjugated rat anti-mouse F4/80 (MCA497F) (Serotec, Oxford, England) by flow microfluorimetry on FACS (Becton Dickinson, Mountain View, Calif.). For each sample, 10,000 light scatter-gated viable cells were analyzed. Peritoneal macrophages and murine macrophage cell line RAW264.7 were cultured RPMI 1640 medium containing 10% FCS, 2 mM L-glutamine; 100 U/ml penicillin; 100 μg/ml streptomycin (Beit-Haemek, Israel) in 96-well plates (1×10^6 cells/well) at 37° C. in 5% CO2 atmosphere. Cells were stimulated with LPS (0.1-1 μg/ml) in the presence or absence of carnosic acid and/or one or more of the following carotenoids: carnosic acid, purified lycopene, lycopene-rich tomato extract (Lyc-O-Mato®; LycoRed Ltd., Be'er Sheva, Israel), lutein and beta-Carotene.
(§2) The carnosic acid and the various carotenoids were dissolved in DMSO (to a final concentration of 5 mM). The mixture was vortexed and incubated in a water bath at 37° C. (with shaking) for 10 min and then sonicated in a sonicator bath three times for 15 seconds each time. Using this stock solution the desired concentrations were prepared by the addition of appropriate volumes thereof to warm culture medium.
(§3) Appropriate volumes of DMSO (0.1-0.2%) were added to the controls and the percent inhibition in each test tube was calculated in relation to its control.
PGE2 measurement—Supernatants of resting and stimulated cells were collected and immediately stored at −70° C. PGE2 levels were determined by utilizing a dextran coated charcoal radio-immunoassay protocol as previously described (Dror N, Tveria L, Meniv I, Ben-Shmuel S, Filipovich T, Fleisher-Berkovich S., Regul Pept. 2008 150: 21-5).
Briefly, 100 μl sample or PGE2 standard (Sigma Israel, Rehovot, Israel) were incubated in the presence of 500 μl anti-PGE2 anti-serum (Sigma Israel, Rehovot, Israel) for 30 min. [^3H]PGE2 (Amersham Biosciences, NJ, USA) was added next for 24 h at 4° C. 24 h later, 200 […]μl cold dextran coated charcoal suspension was added to each tube and incubated for 10 min on ice. The tubes were centrifuged at 3500 RPM for 15 min at 4° C. 500 μl of supernatants containing [^3H]PGE2-anti-PGE2 complexes were counted (Packard Spectrometry 1900CA) and the amount of PGE2 was calculated.

Experiment [2] deals with LPS stimulated NO production by macrophages. Nature of the experiment: NO production assay in LPS-stimulated peritoneal macrophages, curcumin, lutein and Lycomato (second Example 1). Here is the method: Macrophage isolation and cell culture—Peritoneal macrophages were collected from the peritoneal cavity of 6-8 week old male ICR mice (Harlan, Israel) that had been given an intraperitoneal injection of 1.5 ml of thioglycollate broth (4%) 4 days before harvest. Peritoneal macrophages were washed three times with PBS and, if needed, a hypotonic lysis of erythrocytes was performed, yielding 90-95% purity. The macrophages were identified by FACS analysis using FITC-conjugated rat anti-mouse F4/80 (MCA497F) (Serotec, Oxford, England) by flow microfluorimetry on FACS (Becton Dickinson, Mountain View, Calif.). For each sample, 10,000 light scatter-gated viable cells were analyzed. Peritoneal macrophages were cultured in RPMI 1640 medium containing 10% FCS, 2 mM L-glutamine; 100 U/ml penicillin; 100 μg/ml streptomycin (Beit-Haemek, Israel) in 96-well plates (2×10^5 cells/well) at 37° C. in 5% CO2 atmosphere. LycoMato, Lutein and curcumin-PC (Indena product) and, for comparison, LycoMato, Lutein and pure curcumin and their various combinations were added to the cells. One hour later, LPS (0.2 μg/ml) was added and the macrophages were cultured at 37° C. in a 5% CO2 atmosphere for 24 h.
Curcumin PC (Indena) was dissolved in Diethylene glycol monoethyl ether from Sigma (as recommended by Indena). The volume of solvent was 0.12% for 1 µM curcumin PC. The concentration of curcumin PC was calculated according to its content in the formula (Curcumin PC). Lycomato and Lutein or curcumin were dissolved in DMSO (the volume of DMSO in the test solution was 0.01% for either 1 […] Lycomato, Lutein or pure curcumin. The mixture was vortexed and shaken at 37° C. for 10 min and sonicated in a sonicator bath for 15 sec×3 times. From this stock solution the desired concentrations were made by addition of appropriate volumes to warm culture medium. The concentration of lycopene in solution was calculated to 1 ml of the highest final concentration 0.5 ml isopropanol+1.5 ml hexane/dichloromethane (1:5 V/V) containing 0.025% BHT. The solution is vortexed and the phases are separated by centrifugation 3000 rpm for 10 min. A spectrum was done to detect the level of nutrients.
To the controls appropriate volumes of DMSO and/or Diethylene glycol monoethyl ether were added and the percent inhibition of each test tube was calculated in relation to its control tube.
NO production assay—NO levels in supernatants of cell cultures were determined by assaying nitrite levels using Griess reagent and sodium nitrite as a standard.

The subject of experiment [3] is NO production by peritoneal macrophages. Nature of the experiment: NO production assay in LPS-stimulated peritoneal macrophages (Example 1). As to the method: as §1, §2, §3
NO production assay—NO levels in supernatants of cell cultures were determined by assaying nitrite levels using Griess reagent and sodium nitrite as a standard as described in Green, L. C., Wagner, D. A., Glogowski, J., Skipper, P. L., Wishnok, J. S., and Tannenbaum, S. R. (1982) Anal Biochem. 126: 131-138.

Experiment [4] deals with TNF-alpha production by peritoneal macrophages. Nature of the experiment: TNF-alpha production assay (ELISA) in LPS-stimulated peritoneal macrophages. To be noted: FIG. 3; same set of experiments and concentrations as FIG. 2. As to the method:
as §1, with “Cells were stimulated with LPS (0.1-1 μg/ml) in the presence or absence of carnosic acid and/or one or more of the following carotenoids: carnosic acid, purified lycopene, lycopene-rich tomato extract (Lyc-O-Mato®; LycoRed Ltd., Be'er Sheva, Israel), lutein and beta-Carotene.” left out
as §3
TNF-alpha production assay—Concentrations of TNF-alpha were quantified using ELISA kits (Biolegend Inc., San Diego, Calif.).

The test system of experiment [5] is macrophage superoxide production. Nature of the experiment: Superoxide production by macrophages (ferricytochrome c reduction). To be noted: optimal low concentrations. Here is the method:
Peritoneal macrophages were isolated and treated as described hereinabove in Example 1.
Superoxide production: The production of superoxide anion (O2^−) by macrophages was measured as the superoxide dismutase-inhibitable reduction of ferricytochrome c by the microtiter plate technique, as known in the prior art. An aliquot of radiolabelled macrophages (5× 10^5 cells/well) used for the adherence assay was taken and suspended in 100 μl incubation medium containing ferricytochrome c ([…]). Stimulation was induced with PMA (50 ng/ml). The reduction of ferricytochrome c was followed by a change of absorbance at 550 nm at 2 min intervals for 30 min on a Thermomax Microplate Reader (Molecular Devices, Melno Park, Calif., USA). The maximal rates of superoxide generation were determined and expressed as nanomoles O2^−/10^6 cells/10 min using the extinction coefficient E550=21 mM^−1 cm^−1.

[6] abbreviates: Mus musculus, Peritoneal macrophage, read-out: inhibition of NO production.

Regarding `CC1=C[C@H](O)CC(C)(C)[C@H]1/C=C/C(C)=C/C=C/C(C)=C/C=C/C=C(C)/C=C/C=C(C)/C=C/C1=C(C)C[C@@H](O)CC1(C)C` [lutein], in experiment [1], the “inhibition of PGE2 production (in words)” value is on record as “neither lutein (0.5 μM) nor beta-Carotene (1 μM) alone affected PGE2 production”. Besides, in experiment [2] (Mus musculus, Macrophage, 2 μM Curcumin-PC or pure Curcumin, 1 μM Lycomato, 1 μM Lutein, alone or combined, LPS 0.2 μg/ml, 24 h), the inhibition at 1 µM was 5 ± 0.9%.

As to `CC(C)=CCC/C(C)=C/C=C/C(C)=C/C=C/C(C)=C/C=C/C=C(C)/C=C/C=C(C)/C=C/C=C(\C)CCC=C(C)C` [lycopene], the “inhibition of NO production (in words)” value in experiment [3] (alone, range of 1-5 μM) was “low level inhibition”. In addition, in experiment [4], the “inhibition of TNF-alpha production (in words)” value is reported as “lack of detectable inhibition”. Further, in experiment [5] (FIG. 9), the “inhibition of superoxide production (in words)” value is “lack of detectable inhibition”.

Turning to `CC1=C(/C=C/C(C)=C/C=C/C(C)=C/C=C/C=C(C)/C=C/C=C(C)/C=C/C2=C(C)CCCC2(C)C)C(C)(C)CCC1` [beta-carotene], in experiment [1], the “inhibition of PGE2 production (in words)” value is recorded as “neither lutein (0.5 μM) nor beta-Carotene (1 μM) alone affected PGE2 production” and the “inhibition of PGE2 production” value is given as “around 20%”. For the same compound, testing at 2 µM in experiment [5] (Mus musculus, Macrophage, alone, beta-carotene 2 μM) gave an inhibition of 10%.

Regarding `CC(C)c1cc2c(c(O)c1O)[C@@]1(C(=O)O)CCCC(C)(C)[C@@H]1CC2` [carnosic acid], in experiment [3] (setting [6]), the inhibition at 1 µM worked out at 12% and the inhibition at 2 µM is 18%. Moreover, the inhibition at 1 µM in experiment [1] (Mus musculus, Peritoneal macrophage, read-out: inhibition of PGE2 production) came out at 10%. For the same compound, in experiment [1], the “inhibition of PGE2 production” value is “around 20%”.

On to `COc1cc(/C=C/C(=O)CC(=O)/C=C/c2ccc(O)c(OC)c2)ccc1O` [pure curcumin, curcumin], for which the “inhibition of LPS stimulated NO production” value in experiment [2] (2 μM Curcumin-PC or pure Curcumin, 1 μM Lycomato, 1 μM Lutein, alone or combined, LPS 0.2 μg/ml, 24 h) was 2±0.4%. Besides, the inhibition at 15 µM in experiment [2] (Mus musculus, Macrophage, dose response 0-20 μM, at 15 μM) amounted to 75%. For the same compound, the “inhibition of NO production (in words)” value in experiment [2] (alone, 1 μM and 2 μM) was “non-significant inhibitory effect”.

The term inhibition denotes how much of the control response was suppressed.
